Results as given in publication PMC9849163, “Characterisation of AMB-FUBINACA metabolism and CB1-mediated activity of its acid metabolite” (Forensic Toxicology, 2022).

Key:
[1] = molecular target: T1, CES1 (carboxylesterase 1, CES1A1) (Homo sapiens, UniProt P23141); assay: product of AMB-FUBINACA hydrolysis by recombinant CES1, HPLC-DAD; assay type: biochemical
T1 construct: CES1 isoform b (CES1b/CES1A1) human recombinant
T1 sequence (P23141 18-567): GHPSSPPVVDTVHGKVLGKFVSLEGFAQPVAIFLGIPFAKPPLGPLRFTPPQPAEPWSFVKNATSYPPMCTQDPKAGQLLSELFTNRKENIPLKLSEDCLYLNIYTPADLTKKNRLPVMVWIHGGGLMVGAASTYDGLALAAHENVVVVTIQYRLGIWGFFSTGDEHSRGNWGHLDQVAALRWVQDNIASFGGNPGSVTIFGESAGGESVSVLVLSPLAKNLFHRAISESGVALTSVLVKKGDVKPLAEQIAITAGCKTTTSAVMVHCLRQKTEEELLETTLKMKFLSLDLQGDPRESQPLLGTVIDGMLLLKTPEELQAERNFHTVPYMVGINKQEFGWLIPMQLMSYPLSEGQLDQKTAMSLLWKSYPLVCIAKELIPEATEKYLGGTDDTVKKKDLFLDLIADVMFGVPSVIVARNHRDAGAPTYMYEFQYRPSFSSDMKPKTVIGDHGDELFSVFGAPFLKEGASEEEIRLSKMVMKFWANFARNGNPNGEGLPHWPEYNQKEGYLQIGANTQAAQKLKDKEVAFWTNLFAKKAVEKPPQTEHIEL

[2] = molecular target: T2, cannabinoid type-1 receptor (CB1) (Homo sapiens, UniProt P21554); assay: BRET CAMYEL cAMP inhibition assay (agonism); also weak radioligand displacement ([…] at […]); assay type: cell-based
T2 construct: gene CNR1; 3HA-tagged human CB1 in HEK293 cells

[3] = molecular target: T1, CES1 (carboxylesterase 1, CES1A1); assay: hydrolysis by recombinant CES1, HPLC-DAD time course (t1/[…] s at […]); assay type: biochemical
[4] = molecular target: T2, cannabinoid type-1 receptor (CB1); assay: BRET CAMYEL cAMP inhibition assay (agonism) in HEK293 cells stably expressing 3HA-hCB1; assay type: cell-based
[5] = molecular target: T1, CES1 (carboxylesterase 1, CES1A1); assay: p-nitrophenol formation by recombinant CES1, absorbance at […] nm; assay type: biochemical
[6] = molecular target: T3, CES2 (carboxylesterase-2) (Homo sapiens, UniProt O00748); assay: p-nitrophenol formation by recombinant CES2, absorbance at […] nm; assay type: biochemical
T3 construct: carboxylesterase-2 (CES2) human recombinant
T3 sequence (O00748 27-559): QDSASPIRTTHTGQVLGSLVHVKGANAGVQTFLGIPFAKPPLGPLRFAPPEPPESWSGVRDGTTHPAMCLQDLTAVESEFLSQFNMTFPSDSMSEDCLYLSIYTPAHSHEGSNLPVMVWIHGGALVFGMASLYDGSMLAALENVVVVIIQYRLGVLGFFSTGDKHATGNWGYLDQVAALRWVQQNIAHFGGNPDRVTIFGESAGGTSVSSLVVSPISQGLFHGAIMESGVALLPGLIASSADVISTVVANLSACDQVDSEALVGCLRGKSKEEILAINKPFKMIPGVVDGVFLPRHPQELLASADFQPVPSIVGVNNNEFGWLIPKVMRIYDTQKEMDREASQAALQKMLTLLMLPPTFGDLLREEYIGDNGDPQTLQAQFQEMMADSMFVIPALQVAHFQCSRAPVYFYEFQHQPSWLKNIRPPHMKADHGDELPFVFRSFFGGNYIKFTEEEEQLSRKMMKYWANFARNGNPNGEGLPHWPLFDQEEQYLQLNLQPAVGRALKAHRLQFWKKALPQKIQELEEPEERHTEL

[7] = molecular target: T1, CES1 (carboxylesterase 1, CES1A1); assay: inhibition of PNPA hydrolysis by recombinant CES1, absorbance at […] nm; assay type: biochemical; settings: read-out: % of control velocity at 50 μM
[8] = molecular target: T3, CES2 (carboxylesterase-2); assay: inhibition of PNPA hydrolysis by recombinant CES2, absorbance at […] nm; assay type: biochemical; settings: read-out: % of control velocity at 50 μM

T2 sequence (P21554 whole entry): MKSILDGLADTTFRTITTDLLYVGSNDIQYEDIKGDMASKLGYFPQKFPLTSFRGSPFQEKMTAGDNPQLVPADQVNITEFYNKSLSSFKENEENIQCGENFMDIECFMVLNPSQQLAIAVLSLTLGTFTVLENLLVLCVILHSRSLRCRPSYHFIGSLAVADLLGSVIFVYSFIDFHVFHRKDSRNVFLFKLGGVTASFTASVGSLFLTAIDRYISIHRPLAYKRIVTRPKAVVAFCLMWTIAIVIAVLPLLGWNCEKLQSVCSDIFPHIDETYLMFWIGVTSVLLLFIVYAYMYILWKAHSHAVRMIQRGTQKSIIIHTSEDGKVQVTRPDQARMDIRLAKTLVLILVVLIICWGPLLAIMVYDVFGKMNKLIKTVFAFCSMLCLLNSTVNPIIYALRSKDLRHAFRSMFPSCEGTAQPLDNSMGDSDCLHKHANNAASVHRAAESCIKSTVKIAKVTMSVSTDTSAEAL

SMILES: CC(C)[C@H](NC(=O)c1nn(Cc2ccc(F)cc2)c2ccccc12)C(=O)O [AMB-FUBINACA acid, methyl (2S)-2-((1-((4-fluorophenyl)methyl]indazole-3-carbonyl)amino)-3-methylbutanoic acid]
- product of AMB-FUBINACA hydrolysis by recombinant CES1, HPLC-DAD [1]: No metabolites other than AMB-FUBINACA acid were generated
- EC50 [2]: 447 nM

SMILES: COC(=O)[C@@H](NC(=O)c1nn(Cc2ccc(F)cc2)c2ccccc12)C(C)C [AMB-FUBINACA, methyl (2S)-2-((1-((4-fluorophenyl)methyl)indazole-3-carbonyl)amino)-3-methylbutanoate]
- half-life at 3 µM [3]: 2 min
- EC50 [4]: 0.148 nM

SMILES: CC(=O)Oc1ccc([N+](=O)[O-])cc1 [p-nitrophenyl acetate]
- p-nitrophenol formation by recombinant CES1, absorbance at 405 nm [5]: 296 nmol/min/mg
- p-nitrophenol formation by recombinant CES2, absorbance at 405 nm [6]: 221 nmol/min/mg

SMILES: CCCc1nc2c(C)cc(-c3nc4ccccc4n3C)cc2n1Cc1ccc(-c2ccccc2C(=O)O)cc1 [telmisartan]
- remaining activity at 50 µM [7]: 71%
- remaining activity at 50 µM [8]: 58.2%
